Results on 33 compounds are retold here after ChEMBL document CHEMBL3988442, “University of Dundee, Small-Polar-MMV Screening Library” (2021).

Experiment [1] can be described thus: microbe, parasite or virus in culture. To be noted: Mycobacterium tuberculosis, 72 h, read-out: pIC50 (converted).
Experiment [2] is described as follows: microbe, parasite or virus in culture. To be noted: Mycobacterium tuberculosis, 96 h, read-out: pIC50 (converted).

For `N#Cc1ccc(NCCC2CCN(CC(F)(F)F)CC2)nc1`, the IC50 was 15.8 µM in experiment [1] and 14 µM in experiment [2].
Consider `CCc1nc(CCN)cs1`, for which the IC50 in experiment [1] is 113 µM; in experiment [2], 152 µM.
`CN(C)CCNC(=O)c1ccc(Cl)cc1`: the IC50 in experiment [1] and in experiment [2] was more than 501 µM in each case.
As to `Clc1ccc(CSc2cnn[nH]2)s1`, the IC50 is 236 µM in experiment [1] and 267 µM in experiment [2].
As to `Cc1cnn(C2CN(c3ccccc3S(=O)(=O)C(F)(F)F)C2)c1`, the IC50 was 10.2 µM in experiment [1] and 29.4 µM in experiment [2].
Turning to `CN(C)c1ncnc2c1CCN(c1cccc(F)c1)CC2`, the IC50 in experiment [1] and in experiment [2] was more than 50.1 µM each time.
Turning to `CC(NCc1cccc2c1OCCO2)c1ccncc1` (stereo unspecified), the values for the IC50 in experiment [1] and in experiment [2] were 99.1 µM and 153 µM, respectively.
On to `CC(=O)c1c(C)[nH]c(C(=O)OCC(=O)N(C)C)c1C`, for which the IC50 in experiment [1] is 279 µM; in experiment [2] it was 286 µM.
As to `CC(C)c1ccc(OCn2ccc(C(=O)N3CCCC3)n2)cc1`, the results for the IC50 in experiment [1] and in experiment [2] were 26.5 µM and 24.5 µM, respectively.
As for `CCN1C(=O)[C@H]2CN(CC(C)C)C[C@H]2C12CCN(S(C)(=O)=O)CC2`, the IC50 in experiment [1] and in experiment [2] was more than 50.1 µM each time.
`CCOc1ncc(C(=O)NCC(C)(O)C(C)C)cc1Cl` (stereo unspecified): the IC50 is 59.9 µM in experiment [1] and 141 µM in experiment [2].
On to `CCc1noc(CNc2cc3c(cc2Cl)OCCCO3)n1`, for which the IC50 in experiment [1] and in experiment [2] was more than 50.1 µM each time.
On to `CC(C)N1CC(C(=O)NCc2ccc(S(=O)(=O)N(C)C)cc2)CC1=O` (stereo unspecified), for which the IC50 in experiment [1] and in experiment [2] was more than 50.1 µM each time.
On to `Cc1cc(CN2CCCC2)cc(Oc2ccc3c(c2)CC(CN)O3)c1` (stereo unspecified), for which the IC50 in experiment [1] and in experiment [2] was more than 50.1 µM in each case.
`CS(=O)(=O)Nc1cccc(C(=O)Nc2ccccc2)c1`: the IC50 in experiment [1] is 130 µM; in experiment [2], 267 µM.
`CC(C)c1csc(C(=O)N(C)c2ccc(Br)cn2)n1`: the IC50 in experiment [1] was 21.7 µM; in experiment [2], 25.3 µM.
Turning to `CCOC(=O)CNC(=O)c1ccc2c(c1)OCCO2`, the IC50 in experiment [1] and in experiment [2] was more than 501 µM in each case.
On to `CCNc1ncc(C(=O)N2CCC(c3ccccc3C(=O)O)C2)cn1` (stereo unspecified), for which the IC50 in experiment [1] and in experiment [2] was more than 50.1 µM in each case.
Take `COc1ccc(C(N)CO)c2ccccc12` (stereo unspecified): the IC50 was 193 µM in experiment [1] and 313 µM in experiment [2].
On to `CCN(CCO)Cc1cc(-c2cccs2)on1`, for which the IC50 was 145 µM in experiment [1] and more than 501 µM in experiment [2].
In the case of `NCc1cccc2cc[nH]c12`, the IC50 in experiment [1] is 245 µM; in experiment [2] it was 261 µM.
Consider `COc1cccc(-n2nnc(C(=O)NC3CC3)c2C)c1`, for which the IC50 in experiment [1] was 232 µM; in experiment [2], 209 µM.
`CC(C)N(C)S(=O)(=O)N1CCc2sccc2C1C` (stereo unspecified): the values for the IC50 in experiment [1] and in experiment [2] were 150 µM and 207 µM, respectively.
On to `Nc1cc(=O)[nH]n1-c1ccc(C(F)(F)F)cn1`, for which the values for the IC50 in experiment [1] and in experiment [2] were 197 µM and 308 µM, respectively.
Regarding `COc1cccc(C(=O)Nc2ccnn2C(C)C)c1`, the IC50 in experiment [1] was 259 µM; in experiment [2] it was more than 501 µM.
`CCn1nnc2c1C(COCC(=O)N(C)C)CN(Cc1ccoc1)C2` (stereo unspecified): the IC50 in experiment [1] and in experiment [2] was more than 50.1 µM throughout.
`CC(C)C(O)CCNC(=O)Cc1cccc(O)c1` (stereo unspecified): the IC50 in experiment [1] was 430 µM; in experiment [2], more than 501 µM.
`CCSc1nc2ccccc2c(=O)n1OCC(=O)OC`: the IC50 in experiment [1] is 24.9 µM; in experiment [2], more than 50.1 µM.
Consider `Fc1cccc(-c2noc(C3CCCN3)n2)c1` (stereo unspecified), for which the IC50 is 271 µM in experiment [1] and 286 µM in experiment [2].
For `Cc1cc2n(n1)CC(CNC1CCN(C3CC3)CC1)CN2` (stereo unspecified), the IC50 in experiment [1] and in experiment [2] was more than 50.1 µM each time.
For the compound `NC1CCN(c2ncccc2Cl)C1` (stereo unspecified), the IC50 was 135 µM in experiment [1] and 217 µM in experiment [2].
For `O=C(COc1ccccc1Cl)NCC(=O)c1ccco1` the same measures were 342 µM and more than 501 µM.
Take `CCNc1ccnc(C(=O)NCc2ccccc2)c1`: the values for the IC50 in experiment [1] and in experiment [2] were 169 µM and 148 µM, respectively.
